Key:
[1] = test system: twitch of the extensor digitorum; assay: Neuromuscular blocking potency and duration in anesthetized rhesus monkeys; format: in vivo, rhesus monkeys (Macaca mulatta); settings: in vivo, comparable level of neuromuscular blockade
[2] = test system: twitch of the extensor digitorum; assay: Reversal of neuromuscular blockade by L-cysteine or neostigmine in anesthetized rhesus monkeys; format: in vivo, rhesus monkeys (Macaca mulatta)
Procedure: A control dose of 0.15 mg/kg CW 002 was allowed to recover spontaneously to TOF 110-120%. A second dose was given 60 minutes later, followed one minute afterwards by either neostigmine (0.05 mg/kg+atropine 0.05 mg/kg) or L-cysteine (10, 20, 30 or 50 mg/kg). Total duration and 5-95% recovery intervals were compared during spontaneous recovery vs. antagonism by L-cysteine or reversal by neostigmine.
This series of paired comparisons was designed to generate dose-response data comparing spontaneous recovery of high doses of CW 011 (from 4 to 64× ED95) versus immediate antagonism at +1 min by an optimal dose of L-cysteine (50 mg/kg), previously determined during studies of immediate antagonism of CW 002. This experiment was done to explore the limits of chemical antagonism by L-cysteine of these olefinic diester neuromuscular blocking drugs, using CW 011 as a typical example with an intermediate duration of action. Five groups of animals first received a control dose of CW 011 at 4, 8, 16, 32 or 64× ED 95 (0.1 to 1.6 mg/kg). Sixty minutes after spontaneous recovery of the control dose to TOF 110-120%, the same dose was repeated, followed 1 min later by L-cysteine (50 mg/kg). Total duration of action and 5-95% recovery interval were compared during spontaneous recovery and following antagonism by L-cysteine
The reversal of neuromuscular blockade by cysteine (5-50 mg/kg i.v.) was studied. Reversal was tested as follows: full paralysis was induced by injection of a dose of approximately 2-6× ED 95 of the compound in question. After spontaneous recovery of this dose, a second identical dose was given 15-30 min later. Cysteine was then given at +1 min after injection of the neuromuscular blocking drug at a point where no twitch was apparent (“immediate reversal”) or at the beginning of recovery from neuromuscular blockade at two percent twitch height (“classical reversal”). Comparisons were made among compounds with respect to rapidity and ease of cysteine reversal, by comparing 5-95% recovery times, and total durations of action (injection to 95% twitch recovery). Spontaneous recovery was compared with cysteine-accelerated recovery. […]

## COc1ccc(C[C@@H]2c3cc(OC)c(OC)cc3CC[N@@+]2(C)CCCOC(=O)/C=C\C(=O)OCCC[N@+]2(C)CCc3cc(OC)c(OC)cc3[C@H]2Cc2cc(OC)c(OC)c(OC)c2)cc1OC [CW 011]
[1]
  potency relative to CW 002: approximately twice
  potency relative to gantacurium: four times
[2]; CW 011, all cysteine concentrations tested (10 mg/kg to 50 mg/kg as worded elsewhere in the source)
  time to reversal of blockade with cysteine (FIG. 2B): less than 6 minutes
[2]; CW 011, higher cysteine doses
  time from cysteine administration to beginning of reversal (FIG. 2B): 2 to 3 min
[2]; CW 011, no reversal agent
  time to spontaneous reversal of blockade (FIG. 2): more than 12 minutes
[2]; cysteine (L or D) or glutathione
  reversibility of neuromuscular blockade by thiol compounds: reversible
[2]; immediate reversal
  effect of neostigmine given immediately after the blocking drug: ineffective
[2]; increasing doses of CW 011 (4 to 64× ED95), no reversal agent
  spontaneous reversal rate (FIG. 2A): decreases with increasing CW 011 dose
[2]; neostigmine given at beginning of spontaneous recovery, e.g. at 2% twitch height
  classical antagonism of neuromuscular blockade by neostigmine: showed antagonism

Source: patent US8592451B2, “Reversible nondepolarizing neuromuscular blockade agents and methods for their use” (Cornell University, priority 2009, dated 2013)
